According to US4965280A, “Antifungal carbinols” (E. I. Du Pont de Nemours and Company, priority 1989, dated 1990):

Key:
GIANT FOXTAIL = assay: Test D; format: in vivo, Setaria faberii
BARNYARDGRASS = assay: Test D; format: in vivo, Echinochloa crus-galli
Method: (§1) The Corn and Sorghum Herbicide Test included the following species in both the preemergence and postemergence evaluations:
(§2) Postemergence plantings were grown in Sassafras sandy loam soil. Corn and soybeans were grown in separate 25 cm diameter containers. Sorghum and the seven grass weed species were grown in two 18 cm diameter containers, 4 species per container. The seven broadleaf weed species were also grown in two 18 cm diameter containers, 4 species in one container, 3 species in the second container. One additional planting of corn in an 18 cm diameter container was made. The soil surface of this additional container of corn was covered with the absorbent, perlite, before spray treatment so that test chemicals would enter the plant only via the foliage. The plants were grown 10-21 days, dependent upon the species and then sprayed postemergence with the test chemicals dissolved in a nonpytotoxic solvent.
(§3) Preemergence plantings were grown in fertilized Tama silt loam soil. These plantings are identical to those described in the postemergence section, with the exception of the corn planting having perlite covering the soil surface. These plantings were made the day of or the day before spraying the test chemicals dissolved in a nonphytotoxic solvent.
(§4) Treated plants and controls were maintained in the greenhouse for 2 to 4 weeks. Visual planting response ratings were made on a percentage scale of 0 to 100 in comparison with a control where 0=no injury, and 100=death.

G522 SORGHUM = assay: Test D; format: in vivo, Sorghum bicolor
PURPLE NUTSEDGE = assay: Test D; format: in vivo, Cyperus rotundus
COCKLEBUR = assay: Test D; format: in vivo, Xanthium pensylvanicum
LADY SMARTWEED = assay: Test D; format: in vivo, Polygonum persicaris
Method: as §1, §2, §3, §4

LAMBSQUARTER = assay: Test D; format: in vivo, Chenopodium album
PERLITE CORN = assay: Test D, soil covered with perlite; format: in vivo, Zea mays
Method: as §1, §2, §4

## C=C(c1ccccc1)C(O)(Cn1cncn1)c1ccc(Cl)cc1Cl (centres unmarked) [Example 50, 2-(2,4-Dichlorophenyl)-3-phenyl-1-(1H-1,2,4-triazol-1-yl)-3-buten-2-ol]
GIANT FOXTAIL; POSTEMERGENCE 0250 GM/HA
  plant response: 0%
GIANT FOXTAIL; POSTEMERGENCE 0500 GM/HA
  plant response: 0%
GIANT FOXTAIL; PREEMERGENCE 0064 GM/HA
  plant response: 20%
GIANT FOXTAIL; PREEMERGENCE 0125 GM/HA
  plant response: 65%
GIANT FOXTAIL; PREEMERGENCE 0250 GM/HA
  plant response: 75%
GIANT FOXTAIL; PREEMERGENCE 0500 GM/HA
  plant response: 85%
BARNYARDGRASS; POSTEMERGENCE 0250 GM/HA
  plant response: 0%
BARNYARDGRASS; POSTEMERGENCE 0500 GM/HA
  plant response: 0%
BARNYARDGRASS; PREEMERGENCE 0064 GM/HA
  plant response: 0%
BARNYARDGRASS; PREEMERGENCE 0125 GM/HA
  plant response: 0%
BARNYARDGRASS; PREEMERGENCE 0250 GM/HA
  plant response: 20%
BARNYARDGRASS; PREEMERGENCE 0500 GM/HA
  plant response: 45%
G522 SORGHUM; POSTEMERGENCE 0250 GM/HA
  plant response: 0%
G522 SORGHUM; POSTEMERGENCE 0500 GM/HA
  plant response: 0%
G522 SORGHUM; PREEMERGENCE 0064 GM/HA
  plant response: 0%
G522 SORGHUM; PREEMERGENCE 0125 GM/HA
  plant response: 0%
G522 SORGHUM; PREEMERGENCE 0250 GM/HA
  plant response: 0%
G522 SORGHUM; PREEMERGENCE 0500 GM/HA
  plant response: 0%
PURPLE NUTSEDGE; POSTEMERGENCE 0250 GM/HA
  plant response: 0%
PURPLE NUTSEDGE; POSTEMERGENCE 0500 GM/HA
  plant response: 0%
PURPLE NUTSEDGE; PREEMERGENCE 0064 GM/HA
  plant response: 0%
PURPLE NUTSEDGE; PREEMERGENCE 0125 GM/HA
  plant response: 0%
PURPLE NUTSEDGE; PREEMERGENCE 0250 GM/HA
  plant response: 0%
PURPLE NUTSEDGE; PREEMERGENCE 0500 GM/HA
  plant response: 30%
COCKLEBUR; POSTEMERGENCE 0250 GM/HA
  plant response: 25%
COCKLEBUR; POSTEMERGENCE 0500 GM/HA
  plant response: 40%
COCKLEBUR; PREEMERGENCE 0064 GM/HA
  plant response: 0%
COCKLEBUR; PREEMERGENCE 0125 GM/HA
  plant response: 0%
COCKLEBUR; PREEMERGENCE 0250 GM/HA
  plant response: 0%
COCKLEBUR; PREEMERGENCE 0500 GM/HA
  plant response: 25%
LADY SMARTWEED; POSTEMERGENCE 0250 GM/HA
  plant response: 30%
LADY SMARTWEED; POSTEMERGENCE 0500 GM/HA
  plant response: 40%
LADY SMARTWEED; PREEMERGENCE 0064 GM/HA
  plant response: 0%
LADY SMARTWEED; PREEMERGENCE 0125 GM/HA
  plant response: 0%
LADY SMARTWEED; PREEMERGENCE 0250 GM/HA
  plant response: 20%
LADY SMARTWEED; PREEMERGENCE 0500 GM/HA
  plant response: 40%
LAMBSQUARTER; POSTEMERGENCE 0250 GM/HA
  plant response: 65%
LAMBSQUARTER; POSTEMERGENCE 0500 GM/HA
  plant response: 80%
LAMBSQUARTER; PREEMERGENCE 0064 GM/HA
  plant response: 0%
LAMBSQUARTER; PREEMERGENCE 0125 GM/HA
  plant response: 35%
LAMBSQUARTER; PREEMERGENCE 0250 GM/HA
  plant response: 75%
LAMBSQUARTER; PREEMERGENCE 0500 GM/HA
  plant response: 90%
PERLITE CORN; POSTEMERGENCE 0250 GM/HA
  plant response: 0%
PERLITE CORN; POSTEMERGENCE 0500 GM/HA
  plant response: 0%

## C=C(c1ccccc1Cl)C(O)(Cn1cncn1)c1ccc(Cl)cc1Cl (centres unmarked) [Example 33, 2-(2,4-Dichlorophenyl)-3-(2-chlorophenyl)-1-(1H-1,2,4-triazol-1-yl)-3-buten-2-ol]
GIANT FOXTAIL; POSTEMERGENCE 0250 GM/HA
  plant response: 0%
GIANT FOXTAIL; POSTEMERGENCE 0500 GM/HA
  plant response: 0%
GIANT FOXTAIL; POSTEMERGENCE 1000 GM/HA
  plant response: 0%
GIANT FOXTAIL; PREEMERGENCE 0250 GM/HA
  plant response: 0%
GIANT FOXTAIL; PREEMERGENCE 0500 GM/HA
  plant response: 0%
GIANT FOXTAIL; PREEMERGENCE 1000 GM/HA
  plant response: 0%
BARNYARDGRASS; POSTEMERGENCE 0250 GM/HA
  plant response: 0%
BARNYARDGRASS; POSTEMERGENCE 0500 GM/HA
  plant response: 0%
BARNYARDGRASS; POSTEMERGENCE 1000 GM/HA
  plant response: 0%
BARNYARDGRASS; PREEMERGENCE 0250 GM/HA
  plant response: 0%
BARNYARDGRASS; PREEMERGENCE 0500 GM/HA
  plant response: 0%
BARNYARDGRASS; PREEMERGENCE 1000 GM/HA
  plant response: 0%
G522 SORGHUM; POSTEMERGENCE 0250 GM/HA
  plant response: 0%
G522 SORGHUM; POSTEMERGENCE 0500 GM/HA
  plant response: 0%
G522 SORGHUM; POSTEMERGENCE 1000 GM/HA
  plant response: 0%
G522 SORGHUM; PREEMERGENCE 0250 GM/HA
  plant response: 0%
G522 SORGHUM; PREEMERGENCE 0500 GM/HA
  plant response: 0%
G522 SORGHUM; PREEMERGENCE 1000 GM/HA
  plant response: 0%
PURPLE NUTSEDGE; POSTEMERGENCE 0250 GM/HA
  plant response: 0%
PURPLE NUTSEDGE; POSTEMERGENCE 0500 GM/HA
  plant response: 0%
PURPLE NUTSEDGE; POSTEMERGENCE 1000 GM/HA
  plant response: 0%
PURPLE NUTSEDGE; PREEMERGENCE 0250 GM/HA
  plant response: 0%
PURPLE NUTSEDGE; PREEMERGENCE 0500 GM/HA
  plant response: 0%
PURPLE NUTSEDGE; PREEMERGENCE 1000 GM/HA
  plant response: 0%
COCKLEBUR; POSTEMERGENCE 0250 GM/HA
  plant response: 0%
COCKLEBUR; POSTEMERGENCE 0500 GM/HA
  plant response: 0%
COCKLEBUR; POSTEMERGENCE 1000 GM/HA
  plant response: 0%
COCKLEBUR; PREEMERGENCE 0250 GM/HA
  plant response: 0%
COCKLEBUR; PREEMERGENCE 0500 GM/HA
  plant response: 0%
COCKLEBUR; PREEMERGENCE 1000 GM/HA
  plant response: 0%
LADY SMARTWEED; POSTEMERGENCE 0250 GM/HA
  plant response: 0%
LADY SMARTWEED; POSTEMERGENCE 0500 GM/HA
  plant response: 0%
LADY SMARTWEED; POSTEMERGENCE 1000 GM/HA
  plant response: 0%
LADY SMARTWEED; PREEMERGENCE 0250 GM/HA
  plant response: 0%
LADY SMARTWEED; PREEMERGENCE 0500 GM/HA
  plant response: 0%
LADY SMARTWEED; PREEMERGENCE 1000 GM/HA
  plant response: 0%
LAMBSQUARTER; POSTEMERGENCE 0250 GM/HA
  plant response: 0%
LAMBSQUARTER; POSTEMERGENCE 0500 GM/HA
  plant response: 0%
LAMBSQUARTER; POSTEMERGENCE 1000 GM/HA
  plant response: 0%
LAMBSQUARTER; PREEMERGENCE 0250 GM/HA
  plant response: 0%
LAMBSQUARTER; PREEMERGENCE 0500 GM/HA
  plant response: 0%
LAMBSQUARTER; PREEMERGENCE 1000 GM/HA
  plant response: 0%
PERLITE CORN; POSTEMERGENCE 0250 GM/HA
  plant response: 0%
PERLITE CORN; POSTEMERGENCE 0500 GM/HA
  plant response: 0%
PERLITE CORN; POSTEMERGENCE 1000 GM/HA
  plant response: 0%
